Measurements as given in publication PMC8826726, “Selective Toxicity of Secondary Metabolites from the Entomopathogenic Bacterium Photorhabdus luminescens sonorensis against Selected Plant Parasitic Nematodes of the Tylenchina Suborder” (Microbiology Spectrum, 2022).
In brackets after ≈: the same amount, converted by molar mass.

What was measured:
Meloidogyne incognita = settings: cited from earlier work
Caenorhabditis elegans = settings: cited from earlier work
[1] = system: Meloidogyne incognita J2 juveniles; assay: microbe, parasite or virus in culture; settings: for LC50 / LC10 / LC25 / LC90: mortality
Source text: (§1) Only soil inhabiting (free-living or infective) stages of target and non-target nematode species were considered in the present study. All nematode cultures (except T. semipenetrans) were maintained in the Stock laboratory (University of Arizona). M. incognita was reared in planta using susceptible tomato plants (cv. Roma VF; seedlings with five or six true leaves; courtesy of Dr. J. Brown, University of Arizona). Eggs of M. incognita were extracted from infected tomato plant roots, and J2 were collected after hatching, following the procedures of Atamian et al. ([50]). T. semipenetrans was isolated from infested lemon orchards at the Yuma Agricultural Center, University of Arizona (Yuma, AZ, USA). Eggs of T. semipenetrans were extracted from infected lemon tree roots using the procedures of El-Borai et al. ([51]), and J2 were collected using the same procedure as that described for M. incognita.
(§2) Twelve-well tissue culture plates were used as the experimental arena. For each of the tested nematode species, an inoculum of 100 nematodes, suspended in 20 μL distilled water, was added to each well. […] For PPA (Enamine) and indole (Alfa Aesar), 13 incremental concentrations were tested ranging from 10 to 400 μg/mL in 1 mL of distilled water (DMSO ≤ 1%; vol/vol). […] Distilled water with 1% DMSO was used as the negative control. To measure the combined nematicidal effects of the three SMs, equal concentrations of two or three SMs were mixed in 1:1 or 1:1:1 mixture. For example, a 20 μg/mL solution of a two-SM mixture contained 20 μg from metabolite A and 20 μg metabolite B, dissolved in 1 mL distilled water. Individual or combined SMs from 10 μg/mL to 200 μg/mL (in 20 μg/ml increments) were prepared in distilled water (DMSO ≤ 1%; vol/vol) and used for the bioassays.
(§3) The well plates were covered with their lids and incubated at 25°C in the dark. For the targeted nematode species, nematicidal activity was recorded at 24 h, 48 h, and 72 h after initial exposure to the individual SMs. For the non-target species, data were only recorded at 24 h after initial exposure to the individual SMs. For SM mixtures, mortality was recorded 24 h after initial exposure of the targeted nematode species. Nematodes were probed with a needle to assess if they were alive, dead, or paralyzed. […] Those nematodes that resumed activity upon probing were considered to suffer from temporary paralysis (impaired motility). Paralyzed nematodes were rinsed at least three times in distilled water and held for an additional 24 h to check for their recovery from temporarily paralysis. […] Experiments were repeated at least three times per treatment for each concentration tested.
(§4) For the toxicity data visualization, the relationship between percent mortality or temporary paralysis and metabolite concentration were described by a sigmoidal curve, which was fitted by the logistical function using the statistical software package SigmaPlot for Windows, version 14.0 (Systat Software Inc.). […] Concentration-response data of single metabolites or SM mixtures were pooled for each concentration and subjected to probit regression analysis using the Polo Plus program (LeOra Software). The LC or EC values, along with the corresponding 95% confidence intervals, were estimated for each single SM or SM mixture at each exposure time, depending on the experimental setting.

[2] = system: Tylenchulus semipenetrans J2 juveniles; assay: microbe, parasite or virus in culture; settings: mortality
Source text: as §1, §2, §3, §4

in vitro = assay: in vitro
Source text: The non-target species, C. elegans wild-type strain N2 Bristol (courtesy of Dr. G.L. Sutphin, University of Arizona) and Rhabditis blumi DF5010 (Caenorhabditis Genetics Center, University of MN, USA) were maintained in vitro in nematode growth medium (NGM) agar plates seeded with Escherichia coli (Migula) Castellani and Chalmers, strain OP-50, as described previously ([52]). Mixed juveniles and hermaphrodites (5 to 6 days old) were collected from the culture plates prior to the bioassays. Infective third-stage juveniles (IJs) of three non-target entomopathogenic nematode species (H. sonorensis Caborca strain, H. bacteriophora TT01 strain, and Steinernema carpocapsae All strain) were also maintained by rearing them in vivo using wax moth larvae (Galleria mellonella) as the host, according to procedures described previously ([53]), and collected for bioassays within 2 to 4 days of their emergence from nematode-infected cadavers. Nematode population density (number of nematodes per ml) was standardized prior to setting up well-plate bioassays, by adjusting each nematode suspension to a concentration of 100 nematodes in 20 μL of distilled water.
as §2, §3, §4

[3] = system: non-target nematodes versus targeted PPNs; assay: Selectivity index, non-target nematodes over targeted PPNs; settings: 24 h LC50
Procedure: The selectivity index of a given SM was calculated by dividing the averages of the LC50 or EC50 values obtained against each of the selected non-target nematodes by the LC50 or the EC50 values observed for each of the targeted PPN tested.

[4] = In vitro nematicidal assay, values summarised over the non-target nematodes; format: cell-based; settings: non-target nematodes in 12-well tissue culture plates; 24 h exposure; species for which an LC50 was established; read-out: LC50 values, range over non-target nematodes
[5] = system: HFF cells (human foreskin cells); assay: MTT cytotoxicity assay; format: cell-based; settings: tested at 50, 100, 200 μM, data not shown
Procedure: (§5) The non-cancerous HFF cells (human foreskin cells) and three human cancer cell lines, NCI-H460 (non-small cell lung cancer), SF-268 (central nervous system glioma), and MCF-7 (breast cancer) were used to evaluate the in vitro cytotoxicity of the isolated Photorhabdus SMs. The MTT (3-(4,5-dimethylthiazol-2-yl)-2,5-diphenyltetrazolium bromide) colorimetric method ([54]) was used with doxorubicin as the positive control, and DMSO as the negative control. Photorhabdus SMs were tested at 50, 100, and 200 μM concentrations, and the assays were repeated three times.

MCF-7 (breast cancer) = assay: MTT cytotoxicity assay; format: cell-based, human; settings: tested at 50, 100, 200 μM, data not shown
Procedure: as §5

[6] = system: NCI-H460 (non-small cell lung cancer); assay: MTT cytotoxicity assay; format: cell-based, human; settings: tested at 50, 100, 200 μM, data not shown
Procedure: as §5

[7] = system: SF-268 (central nervous system glioma); assay: MTT cytotoxicity assay; format: cell-based, human; settings: tested at 50, 100, 200 μM, data not shown
Procedure: as §5

| SMILES | LC10 ([1]; 24 h exposure) | LC25 ([1]; 24 h exposure) | LC90 ([1]; 24 h exposure) | LC10 ([1]; 48 h exposure) | LC25 ([1]; 48 h exposure) | LC90 ([1]; 48 h exposure) | LC25 ([1]; 72 h exposure) | LC90 ([1]; 72 h exposure) | LC10 ([2]; 24 h exposure) | LC25 ([2]; 24 h exposure) | LC90 ([2]; 24 h exposure) | LC10 ([2]; 48 h exposure) | LC25 ([2]; 48 h exposure) | LC90 ([2]; 48 h exposure) | LC25 ([2]; 72 h exposure) | LC90 ([2]; 72 h exposure) | also measured |
| --- | --- | --- | --- | --- | --- | --- | --- | --- | --- | --- | --- | --- | --- | --- | --- | --- | --- |
| CC(C)c1c(O)cc(C=Cc2ccccc2)cc1O [3,5-dihydroxy-4-isopropylstilbene] | – | – | – | – | – | – | – | – | – | – | – | – | – | – | – | – | Nematicidal activity (Meloidogyne incognita): no activity; Toxicity to non-target bacterivorous nematode (Caenorhabditis elegans): toxic at similar concentrations (up to 100 μg/ml) |
| O=C(O)CC/C=C/c1ccccc1 [PPA, (4E)-5-phenylpent-4-enoic acid] | 29.4 (22.1, 34.6) μg/mL | 35.8 (29.0, 40.5) μg/mL | 66.9 (61.4, 75.5) μg/mL | 27.6 (19.0, 33.3) μg/mL | 33.6 (25.7, 39.0) μg/mL | 63.9 (57.2, 75.9) μg/mL | 30.7 (22.0, 36.6) μg/mL | 61.0 (52.7, 76.5) μg/mL | 50.8 (27.0, 60.5) μg/mL | 57.6 (36.6, 66.0) μg/mL | 86.4 (78.2, 109.0) μg/mL | 42.7 (31.2, 50.0) μg/mL | 50.1 (39.8, 56.6) μg/mL | 83.7 (76.3, 96.6) μg/mL | 28.0 (8.0, 42.7) μg/mL | 92.4 (60.6, 312.0) μg/mL | Reduction of LC50 for M. incognita versus T. semipenetrans ([1]; 24 h postexposure): 33%; LC50 ([1]; Meloidogyne incognita, 24 h, 24 h exposure): 44 µg/mL (≈ 250 µM); LC50 ([1]; Meloidogyne incognita, 48 h, 48 h exposure): 42 µg/mL (≈ 238 µM); LC50 ([1]; Meloidogyne incognita, 72 h, 72 h exposure): 38.9 µg/mL (≈ 221 µM); LC50 ([1]; 24 h exposure): 44.4 µg/mL (≈ 252 µM); LC10 ([1]; 72 h exposure): 24.8 (16.0, 31.0) μg/mL; LC50 ([2]; Tylenchulus semipenetrans, 24 h, 24 h exposure): 66 µg/mL (≈ 375 µM); LC50 ([2]; Tylenchulus semipenetrans, 48 h, 48 h exposure): 59.8 µg/mL (≈ 339 µM); LC50 ([2]; Tylenchulus semipenetrans, 72 h, 72 h exposure): 42.2 µg/mL (≈ 239 µM); LC50 ([2]; 24 h exposure): 66.3 µg/mL (≈ 376 µM); LC10 ([2]; 72 h exposure): 19.3 (3.06, 31.9) μg/mL; LC50 at 24 h (in vitro; All, Steinernema carpocapsae): > 400 µg/mL; LC50 at 24 h (in vitro; Caborca, Heterorhabditis sonorensis): > 400 µg/mL; LC50 at 24 h (in vitro; DF5010, Rhabditis blumi): 346 µg/mL (≈ 1960 µM); LC50 at 24 h (in vitro; N2 Bristol, Caenorhabditis elegans): 278 µg/mL (≈ 1580 µM); LC50 at 24 h (in vitro; TT01, Heterorhabditis bacteriophora): > 400 µg/mL; Selectivity index (LC50 for the non-target nematodes over those for the targeted PPNs) [3]: 6 to 8; LC50 at 24 h [4]: 278 to 421 µg/mL (≈ 1580 to 2390 µM) |
| O=C(O)/C=C/c1ccccc1 [t-CA, trans-cinnamic acid] | 42.7 (25.6, 52.2) μg/mL | 53.0 (38.0, 61.6) μg/mL | 106.0 (89.6, 159.0) μg/mL | 37.3 (19.1, 47.2) μg/mL | 45.7 (29.0, 55.1) μg/mL | 87.9 (73.0, 137.0) μg/mL | 45.2 (37.7, 50.4) μg/mL | 69.7 (62.6, 82.9) μg/mL | 53.1 (41.2, 61.2) μg/mL | 62.8 (52.2, 70.0) μg/mL | 108.0 (100.0, 121.0) μg/mL | 51.5 (39.7, 59.1) μg/mL | 60.0 (49.6, 66.6) μg/mL | 98.0 (90.7, 110.0) μg/mL | 54.9 (44.4, 61.8) μg/mL | 95.8 (88.2, 108.0) μg/mL | Reduction of the LC90 at 72 h versus 24 h ([1]; M. incognita): 34%; In vitro cytotoxicity: none even at the highest concentration tested [5]: > 200 µM; In vitro cytotoxicity: none even at the highest concentration tested (MCF-7 (breast cancer)): > 200 µM; In vitro cytotoxicity: none even at the highest concentration tested [6]: > 200 µM; In vitro cytotoxicity: none even at the highest concentration tested [7]: > 200 µM |
